Source: patent publication US20200045974A1, “Substituted Oxadiazoles for Combating Phytopathogenic Fungi” (BASF SE, priority 2017, published 2020)

Assays:
Assay type in all cases: in vivo
[1] = system: Phakopsora pachyrhizi; assay: Curative control of soy bean rust on soy beans; conditions: 32 ppm active compound, soy bean seedlings sprayed after inoculation, assessed after 14 days; untreated plants 100%
Method: (§1) This mixture was added to 25 mg of the compound to give a total of 5 mL. Water was then added to total volume of 100 mL. This stock solution was diluted with the described solvent-emulsifier-water mixture to the given concentration.
II.1) Curative Control of Soy Bean Rust on Soy Beans Caused by Phakopsora pachyrhizi
Leaves of pot-grown soy bean seedlings were inoculated with spores of Phakopsora pachyrhizi. To ensure the success of the artificial inoculation, the plants were transferred to a humid chamber with a relative humidity of about 95% and 20 to 24° C. for 24 hours. The next day the plants were cultivated for 3 days in a greenhouse chamber at 23 to 27° C. and a relative humidity between 60 and 80%. Then the plants were sprayed to run-off with an aqueous suspension, containing the concentration of active ingredient or their mixture as described below. The plants were allowed to air-dry. Then the trial plants were cultivated for 14 days in a greenhouse chamber at 23 to 27° C. and a relative humidity between 60 and 80%. The extent of fungal attack on the leaves was visually assessed as % diseased leaf area.

[2] = system: Phakopsora pachyrhizi; assay: Protective control of soy bean rust on soy beans; conditions: 32 ppm active compound, soy bean seedlings sprayed 2 days before inoculation, assessed after fourteen days; untreated plants 100%
Method: as §1
II.2) Protective Control of Soy Bean Rust on Soy Beans Caused by Phakopsora pachyrhizi
Leaves of pot-grown soy bean seedlings were sprayed to run-off with an aqueous suspension, containing the concentration of active ingredient or their mixture as described below. The plants were allowed to air-dry. The trial plants were cultivated for 2 day in a greenhouse chamber at 23 to 27° C. and a relative humidity between 60 and 80%.Then the plants were inoculated with spores of Phakopsora pachyrhizi. To ensure the success the artificial inoculation, the plants were transferred to a humid chamber with a relative humidity of about 95% and 20 to 24° C. for 24 hours. The trial plants were cultivated for fourteen days in a greenhouse chamber at 23 to 27° C. and a relative humidity between 60 and 80%. The extent of fungal attack on the leaves was visually assessed as % diseased leaf area.

[3] = system: Puccinia recondite; assay: Curative control of brown rust on wheat; conditions: 32 ppm active compound, wheat seedlings sprayed after inoculation, assessed after 8 days; untreated plants 90%
Method: as §1
II.3) Curative Control of Brown Rust on Wheat Caused by Puccinia Recondite
The first two developed leaves of pot-grown wheat seedling were dusted with spores of Puccinia recondite. To ensure the success the artificial inoculation, the plants were transferred to a humid chamber without light and a relative humidity of 95 to 99% and 20 to 24° C. for 24 hours. The next day the plants were cultivated for 3 days in a greenhouse chamber at 20 to 24° C. and a relative humidity between 65 and 70%. Then the plants were sprayed to run-off with an aqueous suspension, containing the concentration of active ingredient or their mixture as described below. The plants were allowed to air-dry. Then the trial plants were cultivated for 8 days in a greenhouse chamber at 20 to 24° C. and a relative humidity between 65 and 70%. The extent of fungal attack on the leaves was visually assessed as % diseased leaf area.

O=C(NC12CC(C1)C2)c1ccc(-c2noc(C(F)(F)F)n2)cc1 [Ex-1, N-(1-bicyclo[1.1.1]pentanyl)-4-[5-(trifluoromethyl)-1,2,4-oxadiazol-3-yl]benzamide]
diseased leaf area [1]: 0%
diseased leaf area [2]: 0%
diseased leaf area [3]: 2%
